In ChEMBL document CHEMBL1201862, “PubChem BioAssay data set” (2004):
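Five concentrations, 48 hours, 96-well plates. GI50 is the concentration that inhibits growth by half.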 Activity calls are given as the source filed them. Rule as the data show it: active = GI50 up to about 1.1 µM and inactive = higher.

Tests used:
Assay in all cases: growth of human tumour cells (NCI), 48 h
SN12C = tested on: SN12C
RXF 393 = tested on: RXF 393
UACC-62 = tested on: UACC-62
NCI/ADR-RES = tested on: NCI/ADR-RES
A549 = tested on: A549
KM12 = tested on: KM12
UACC-257 = tested on: UACC-257
SF-268 = tested on: SF-268
CAKI-1 = tested on: CAKI-1
K562 = tested on: K562
MOLT-4 = tested on: MOLT-4
PC-3 = tested on: PC-3
MDA-N = tested on: MDA-N
786-0 = tested on: 786-0
SNB-19 = tested on: SNB-19
Hs-578T = tested on: Hs-578T
SK-MEL-5 = tested on: SK-MEL-5
MDA-MB-435 = tested on: MDA-MB-435
RPMI-8226 = tested on: RPMI-8226

| SMILES | GI50 (SN12C) | GI50 (RXF 393) | GI50 (UACC-62) | GI50 (NCI/ADR-RES) | GI50 (A549) | GI50 (KM12) | GI50 (UACC-257) | GI50 (SF-268) | GI50 (CAKI-1) | GI50 (K562) | GI50 (MOLT-4) | GI50 (PC-3) | GI50 (MDA-N) | GI50 (786-0) | GI50 (SNB-19) | GI50 (Hs-578T) | GI50 (SK-MEL-5) | GI50 (MDA-MB-435) | GI50 (RPMI-8226) |
| --- | --- | --- | --- | --- | --- | --- | --- | --- | --- | --- | --- | --- | --- | --- | --- | --- | --- | --- | --- |
| [O-][s+]1c2c(Cc3ccccc3)c(Cc3ccccc3)c1CCc1cccc(c1)CC2 | 16.2 µM (inactive) | 3.86 µM (inactive) | 10.9 µM (inactive) | 14.4 µM (inactive) | 13.9 µM (inactive) | 12.2 µM (inactive) | 14.1 µM (inactive) | 15.6 µM (inactive) | 11.9 µM (inactive) | 11.2 µM (inactive) | 14 µM (inactive) | 13.3 µM (inactive) | 14.1 µM (inactive) | 15.2 µM (inactive) | 14.6 µM (inactive) | 18.2 µM (inactive) | 14.9 µM (inactive) | 12.9 µM (inactive) |  |
| C=CC[C@@H]1C(=O)[C@@]2(O[Si](C(C)C)(C(C)C)C(C)C)CC[C@@H]1C[C@H]2NC(=O)OCC(Cl)(Cl)Cl | 45.3 µM (inactive) |  | > 100 µM (inactive) | > 100 µM (inactive) | > 100 µM (inactive) | > 100 µM (inactive) | 43.8 µM (inactive) | > 100 µM (inactive) | 59.2 µM (inactive) | 61.8 µM (inactive) | > 100 µM (inactive) | 32.9 µM (inactive) | 77.1 µM (inactive) | 77.1 µM (inactive) | > 100 µM (inactive) | > 100 µM (inactive) | > 100 µM (inactive) | > 100 µM (inactive) |  |
| COc1ccccc1[S+]([O-])Nc1ccccc1 (stereo not drawn) | > 100 µM (inactive) |  | 10.7 µM (inactive) | 91.4 µM (inactive) | 74.6 µM (inactive) | 12.5 µM (inactive) | 50.4 µM (inactive) | 16.7 µM (inactive) |  | 25.4 µM (inactive) | 32.2 µM (inactive) |  | > 100 µM (inactive) | > 100 µM (inactive) | > 100 µM (inactive) | 76 µM (inactive) | 25.5 µM (inactive) | 31 µM (inactive) | 72.9 µM (inactive) |
| CC1(C)CC(=O)C(=CNC(N)=S)C(=O)C1 | > 100 µM (inactive) | > 100 µM (inactive) | > 100 µM (inactive) | > 100 µM (inactive) | > 100 µM (inactive) | > 100 µM (inactive) | > 100 µM (inactive) | > 100 µM (inactive) | > 100 µM (inactive) |  | > 100 µM (inactive) | > 100 µM (inactive) | > 100 µM (inactive) | > 100 µM (inactive) | > 100 µM (inactive) | > 100 µM (inactive) | > 100 µM (inactive) | > 100 µM (inactive) |  |
| CSc1ccc(C2C(Cl)C(=O)N2NC(=O)c2c(Cl)c(Cl)c(Cl)c(Cl)c2-c2nc3ccccc3[nH]2)cc1 (stereo not drawn) | 15.8 µM (inactive) | 1.97 µM (inactive) | 29.8 µM (inactive) | 29.9 µM (inactive) | 31.4 µM (inactive) | 16.8 µM (inactive) | 27.2 µM (inactive) | 19.1 µM (inactive) | 14.9 µM (inactive) | 18.1 µM (inactive) | 4.7 µM (inactive) | 17.5 µM (inactive) | 21.5 µM (inactive) | 18.4 µM (inactive) | 29.7 µM (inactive) | 32.5 µM (inactive) | 17.1 µM (inactive) | 13.3 µM (inactive) |  |
| COC1(CC[C@@H](C)COC2OC(CO)C(O)C(O)C2O)OC2C[C@H]3[C@@H]4CC[C@H]5C[C@@H](OC6OC(CO)C(OC7OC(CO)C(O)C(O)C7O)C(O)C6OC6OC(C)C(O)C(O)C6O)[C@H](O)C[C@]5(C)[C@H]4CC[C@]3(C)C2[C@@H]1C (stereo partly drawn) | 1.86 µM (inactive) | 2.04 µM (inactive) | 1.85 µM (inactive) |  | 1.92 µM (inactive) | 2.12 µM (inactive) | 1.97 µM (inactive) | 2.07 µM (inactive) | 2.01 µM (inactive) | 2.37 µM (inactive) | 2.58 µM (inactive) | 1.87 µM (inactive) | 2.19 µM (inactive) | 2.02 µM (inactive) | 1.87 µM (inactive) | 2.52 µM (inactive) | 1.79 µM (inactive) | 1.84 µM (inactive) | 2 µM (inactive) |
| CCOC(=O)NC(=S)c1ccc(O)c2ccccc12 |  |  | 68.1 µM (inactive) | 25.8 µM (inactive) | 44.9 µM (inactive) | 39 µM (inactive) | > 100 µM (inactive) | 12.4 µM (inactive) | 44.2 µM (inactive) | 42.1 µM (inactive) | 36.1 µM (inactive) | > 100 µM (inactive) | 26.4 µM (inactive) | > 100 µM (inactive) | 95.5 µM (inactive) | 21.7 µM (inactive) | 42.8 µM (inactive) | 40.7 µM (inactive) | 74.5 µM (inactive) |
| COc1cc(Br)cc2c1O[C@H]1C(=O)CC3CC21CCN3C (stereo partly drawn) |  |  | > 100 µM (inactive) | 67.5 µM (inactive) | 94.4 µM (inactive) | 72.3 µM (inactive) | 35.8 µM (inactive) | 80 µM (inactive) | 74.1 µM (inactive) | 19.8 µM (inactive) | 25 µM (inactive) | 64 µM (inactive) | 66.2 µM (inactive) | 51.6 µM (inactive) | > 100 µM (inactive) | 44.7 µM (inactive) | > 100 µM (inactive) | 52.2 µM (inactive) | 21.8 µM (inactive) |
| C[C@@H]1C(=O)C[C@H]2C(C)(C)CCC[C@]2(C)[C@@]1(O)CCc1ccoc1 | > 100 µM (inactive) | > 100 µM (inactive) | > 100 µM (inactive) |  | > 100 µM (inactive) | > 100 µM (inactive) | > 100 µM (inactive) | 96.4 µM (inactive) | > 100 µM (inactive) | > 100 µM (inactive) | 80.4 µM (inactive) | > 100 µM (inactive) | > 100 µM (inactive) | > 100 µM (inactive) | > 100 µM (inactive) | 89.5 µM (inactive) | > 100 µM (inactive) | > 100 µM (inactive) | 84.3 µM (inactive) |
| NCCCN1CCN(CCCNc2ccc3ncn4c5ccccc5c(=O)c2c34)CC1 | 0.826 µM (active) |  | 2.14 µM (inactive) | 13.7 µM (inactive) | 1.95 µM (inactive) | 3.29 µM (inactive) | 5.97 µM (inactive) | 1.26 µM (inactive) | 1.14 µM (inactive) | 1.09 µM (active) | 1.11 µM (active) | 1.69 µM (inactive) | 1.45 µM (inactive) | 1.29 µM (inactive) | 0.887 µM (active) | 3.16 µM (inactive) | 0.791 µM (active) | 1.46 µM (inactive) | 1.52 µM (inactive) |
| COCOc1ccc(C(=O)Oc2cccc3c2OC(C)(C)O3)c(OCOC)c1 | > 100 µM (inactive) | 78.2 µM (inactive) | 28.2 µM (inactive) | > 100 µM (inactive) |  | 11.9 µM (inactive) | > 100 µM (inactive) | 35.6 µM (inactive) | > 100 µM (inactive) | 56.4 µM (inactive) | 53.2 µM (inactive) |  | > 100 µM (inactive) | > 100 µM (inactive) |  | 31.3 µM (inactive) | 54.8 µM (inactive) | 60 µM (inactive) | 38.7 µM (inactive) |
| c1ccc2c(c1)ccc1nc(-c3ccc4c(c3)OCO4)c3c(c12)CCC3 | > 100 µM (inactive) |  | > 100 µM (inactive) | 59.2 µM (inactive) | 95.9 µM (inactive) | 34 µM (inactive) | > 100 µM (inactive) | > 100 µM (inactive) | > 100 µM (inactive) | 20.5 µM (inactive) | 42.8 µM (inactive) | 56.4 µM (inactive) | > 100 µM (inactive) | > 100 µM (inactive) | > 100 µM (inactive) | 55.8 µM (inactive) |  | 59.6 µM (inactive) | 37.1 µM (inactive) |
| CC(=O)CCn1c(=S)sc2ccccc21 | > 100 µM (inactive) | > 100 µM (inactive) | > 100 µM (inactive) | > 100 µM (inactive) | > 100 µM (inactive) | > 100 µM (inactive) | > 100 µM (inactive) | > 100 µM (inactive) | 49.7 µM (inactive) |  | > 100 µM (inactive) | > 100 µM (inactive) | > 100 µM (inactive) | > 100 µM (inactive) | > 100 µM (inactive) | > 100 µM (inactive) | 56.8 µM (inactive) | > 100 µM (inactive) |  |
| O=C(O)c1ccc(Nc2nc3ccccc3nc2C(=O)O)cc1 | > 100 µM (inactive) |  | > 100 µM (inactive) | > 100 µM (inactive) | > 100 µM (inactive) | > 100 µM (inactive) | > 100 µM (inactive) | > 100 µM (inactive) | > 100 µM (inactive) | > 100 µM (inactive) | > 100 µM (inactive) |  | > 100 µM (inactive) | > 100 µM (inactive) | > 100 µM (inactive) | > 100 µM (inactive) | > 100 µM (inactive) | > 100 µM (inactive) | > 100 µM (inactive) |
| CC/C(C)=C1\OC(=O)C(C)C(O)C(Cc2cccnc2)NC(=O)C(NC(=O)c2ncccc2O)C(C)OC1=O (stereo not drawn) | 94 µM (inactive) |  | > 100 µM (inactive) |  | 74.3 µM (inactive) | 42 µM (inactive) | > 100 µM (inactive) | 58.3 µM (inactive) | > 100 µM (inactive) | > 100 µM (inactive) | 53.6 µM (inactive) | 50 µM (inactive) | > 100 µM (inactive) | > 100 µM (inactive) | > 100 µM (inactive) | 29.7 µM (inactive) | > 100 µM (inactive) | > 100 µM (inactive) | 90.8 µM (inactive) |
